Results published in ChEMBL document CHEMBL1144454, “Design, synthesis, and biological activities of pyrrolylethanoneamine derivatives, a novel class of monoamine oxidases inhibitors” (J Med Chem, 2005).
pKi: −log10 of the molar value.

Assays:
[1] = biological target: Amine oxidase [flavin-containing] A (Bos taurus) (UniProt P21398); assay: Inhibitory concentbovineion for bovine Monoamine oxidase A
[2] = Selectivity for bovine Monoamine oxidase A as ratio of Ki(MAO-B)/Ki(MAO-A)
[3] = biological target: Amine oxidase [flavin-containing] B (Bos taurus) (UniProt P56560)
Chain of Amine oxidase [flavin-containing] B (Bos taurus) (P56560 whole entry, looked up): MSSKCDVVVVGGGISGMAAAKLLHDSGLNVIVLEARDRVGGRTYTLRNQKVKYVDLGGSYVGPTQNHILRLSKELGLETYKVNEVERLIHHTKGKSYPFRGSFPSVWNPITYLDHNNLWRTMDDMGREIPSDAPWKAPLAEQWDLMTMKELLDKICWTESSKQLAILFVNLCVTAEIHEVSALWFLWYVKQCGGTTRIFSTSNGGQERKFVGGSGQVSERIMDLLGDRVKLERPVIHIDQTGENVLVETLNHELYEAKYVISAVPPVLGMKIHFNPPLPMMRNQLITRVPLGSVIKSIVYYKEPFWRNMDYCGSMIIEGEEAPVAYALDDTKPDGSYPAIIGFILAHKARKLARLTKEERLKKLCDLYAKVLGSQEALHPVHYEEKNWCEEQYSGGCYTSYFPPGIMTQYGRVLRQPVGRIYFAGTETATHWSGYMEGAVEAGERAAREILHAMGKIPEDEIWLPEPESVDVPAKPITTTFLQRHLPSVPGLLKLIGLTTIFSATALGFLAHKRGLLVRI

Compound | pKi [1] | A-selectivity [2] | pKi [3]
Cn1cccc1C(=O)C(c1ccccc1)N1CCCCC1 (racemic) | 7.02 | 5210 | 3.30
Cn1cccc1C(O)C(c1ccccc1)N1CCCCC1 (racemic; form 1) [listing 1 of 2 here] | – | 0.29 | –
Cn1cccc1C(=O)C(N)c1ccccc1 (stereo not drawn) | 7.02 | 442 | 4.38
Cn1cccc1C(=O)[C@H](c1ccccc1)N1CCCCC1 | 7.00 | 4100 | 3.39
Cn1cccc1C(O)CN1CCCCC1 (stereo not drawn) | 6.29 | 47 | 4.62
Cn1cccc1C(=O)[C@@H](c1ccccc1)N1CCCCC1 | 8.00 | – | –
Cn1cccc1C(O)C(c1ccccc1)N1CCCCC1 (stereo in doubt) [listing 1 of 2 here] | – | 77 | –
Cn1cccc1C(O)C(c1ccccc1)N1CCCCC1 (racemic; form 2) [listing 1 of 2 here] | 6.00 | – | 3.85
Cn1cccc1C(O)C(c1ccccc1)N1CCCCC1 (single isomer, unassigned; form 2) [listing 1 of 2 here] | – | 0.18 | –
Cn1cccc1C(O)C(c1ccccc1)N1CCCCC1 (single isomer, unassigned; form 1) [listing 1 of 2 here] | – | > 19 | –
CN1CCN(C(C(=O)c2cccn2C)c2ccccc2)CC1 (stereo not drawn) | 6.46 | > 288 | < 4.00
Cn1cccc1C(=O)[C@@H](c1ccccc1)N1CCSCC1 | 7.12 | 5260 | 3.40
Cn1cccc1C(O)C(c1ccccc1)N1CCCCC1 (racemic; form 2) [listing 2 of 2 here] | – | 140 | –
Cn1cccc1C(=O)C(c1ccccc1)N1CCSCC1 (stereo not drawn) | 7.00 | > 1000 | < 4.00
Cn1cccc1C(=O)C(c1ccccc1)N1CCN(Cc2ccccc2)CC1 (stereo not drawn) | 6.03 | 11 | 5.00
Cn1cccc1C(=O)[C@H](c1ccccc1)N1CCCC1 | 8.02 | – | 3.30

Compound | pKi [1] | A-selectivity [2] | pKi [3]
CN(C)C(C(=O)c1cccn1C)c1ccccc1 (stereo not drawn) | 5.76 | 500 | 3.06
Cn1cccc1C(O)C(c1ccccc1)N1CCCCC1 (single isomer, unassigned; form 1) [listing 2 of 2 here] | 6.28 | – | < 5.00
Cn1cccc1C(O)C(c1ccccc1)N1CCCCC1 (single isomer, unassigned; (-)) [listing 1 of 2 here] | – | 0.31 | –
CCOc1ccc(NC(C(=O)c2cccn2C)c2ccccc2)cc1 (stereo not drawn) | 6.08 | > 121 | < 4.00
Cn1cccc1C(=O)[C@@H](c1ccccc1)N1CCCC1 | 8.46 | – | 3.15
Cn1cccc1C(=O)C(c1ccccc1)N1CCOCC1 (stereo not drawn) | 6.46 | > 286 | < 4.00
Cn1cccc1C(=O)[C@H](c1ccccc1)N1CCSCC1 | 7.09 | 1220 | 4.00
Cn1cccc1C(O)C(c1ccccc1)N1CCCCC1 (stereo in doubt) [listing 2 of 2 here] | 6.22 | – | 4.34
Cn1cccc1C(O)C(c1ccccc1)N1CCCCC1 (single isomer, unassigned; (-)) [listing 2 of 2 here] | 4.26 | – | 4.76
Cn1cccc1C(O)C(c1ccccc1)N1CCCCC1 (racemic; form 1) [listing 2 of 2 here] | 4.51 | – | 5.04
CC(C(=O)c1cccn1C)N1CCCCC1 (stereo not drawn) | 7.42 | – | 4.44
Cn1cccc1C(=O)CN1CCCCC1 | 8.15 | – | 4.82
Cn1cccc1C(=O)C(c1ccccc1)N1CCCC1 (racemic) | 8.12 | – | 3.22
Cn1cccc1C(O)C(c1ccccc1)N1CCCCC1 (single isomer, unassigned; form 2) [listing 2 of 2 here] | 5.15 | – | 5.91
Cn1cccc1C(=O)C(c1ccccc1)N1C(=O)c2ccccc2C1=O (stereo not drawn) | 6.09 | > 123 | < 4.00
